# Literature values as cited in patent US20040127531A1, “Adhesive coated sheet for dermal delivery of a selective cyclooxygenase-2 inhibitor” (priority 2002, published 2004).
# What was measured:
# COX-1 = COX-1 (Homo sapiens, UniProt P23219)
# COX-2 = target: T1, COX-2 (Homo sapiens, UniProt P35354)
# T1 sequence (P35354 18-604): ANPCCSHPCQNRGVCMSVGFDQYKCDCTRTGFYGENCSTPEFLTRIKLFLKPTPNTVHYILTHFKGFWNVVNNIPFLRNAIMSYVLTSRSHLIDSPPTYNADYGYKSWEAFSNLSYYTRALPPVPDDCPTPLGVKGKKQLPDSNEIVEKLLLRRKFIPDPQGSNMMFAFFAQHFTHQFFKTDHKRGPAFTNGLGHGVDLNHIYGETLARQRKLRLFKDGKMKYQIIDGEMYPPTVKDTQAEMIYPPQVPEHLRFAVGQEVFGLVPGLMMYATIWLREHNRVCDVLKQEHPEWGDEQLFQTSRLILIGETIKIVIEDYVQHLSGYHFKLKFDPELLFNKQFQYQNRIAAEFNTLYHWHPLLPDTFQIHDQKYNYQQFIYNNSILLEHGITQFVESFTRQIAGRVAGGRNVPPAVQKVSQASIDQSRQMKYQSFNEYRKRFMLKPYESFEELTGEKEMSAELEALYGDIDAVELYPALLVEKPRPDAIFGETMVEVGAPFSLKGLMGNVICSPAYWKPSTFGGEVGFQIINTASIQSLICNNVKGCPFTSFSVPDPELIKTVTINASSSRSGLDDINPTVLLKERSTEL
# COX-1, sequence (P23219 24-599): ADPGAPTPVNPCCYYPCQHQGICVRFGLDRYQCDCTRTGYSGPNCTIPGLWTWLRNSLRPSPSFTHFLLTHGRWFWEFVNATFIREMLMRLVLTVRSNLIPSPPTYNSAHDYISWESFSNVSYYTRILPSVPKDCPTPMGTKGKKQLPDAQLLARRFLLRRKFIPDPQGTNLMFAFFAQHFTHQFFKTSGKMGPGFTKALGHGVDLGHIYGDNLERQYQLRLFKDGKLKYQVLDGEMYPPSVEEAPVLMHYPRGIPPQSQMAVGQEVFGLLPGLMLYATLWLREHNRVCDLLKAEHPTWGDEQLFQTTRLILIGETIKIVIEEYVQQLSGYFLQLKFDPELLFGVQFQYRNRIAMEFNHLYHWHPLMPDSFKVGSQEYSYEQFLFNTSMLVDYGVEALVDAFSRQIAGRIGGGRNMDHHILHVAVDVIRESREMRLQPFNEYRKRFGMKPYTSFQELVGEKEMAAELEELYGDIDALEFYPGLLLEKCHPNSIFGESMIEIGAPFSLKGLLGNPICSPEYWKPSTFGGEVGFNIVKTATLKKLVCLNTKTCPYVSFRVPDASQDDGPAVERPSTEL
structure (smiles),measurement,setting,value
"Cc1onc(-c2ccccc2)c1-c1ccc(S(N)(=O)=O)cc1 [valdecoxib, 4-[5-methyl-3-phenylisoxazol-4-yl]benzenesulfonamide]",in vitro inhibitory activity against COX-1,COX-1,weak
"CCC(=O)NS(=O)(=O)c1ccc(-c2c(-c3ccccc3)noc2C)cc1 [Parecoxib, N-[[4-(5-methyl-3-phenylisoxazol-4-yl)phenyl]sulfonyl]propanamide]",in vitro inhibitory activity against COX-2,COX-2,weak
same,in vitro inhibitory activity against COX-1,COX-1,weak
